{
  "source": "patent US20230295163A1",
  "about": "“TETRACYCLIC DERIVATIVE, METHOD FOR PREPARING SAME AND USE THEREOF IN MEDICINE” (ZHEJIANG HISUN PHARMACEUTICAL CO., LTD., priority 2020, published 2023)",
  "key": {"[1]": {"target": "T1, recombinant human KRAS G12C protein (Homo sapiens, UniProt P01116, G12C)", "T1 construct": "The recombinant human KRAS G12C protein (aa1-169)", "T1 sequence (P01116 1-169 isoform P01116-2 G12C)": "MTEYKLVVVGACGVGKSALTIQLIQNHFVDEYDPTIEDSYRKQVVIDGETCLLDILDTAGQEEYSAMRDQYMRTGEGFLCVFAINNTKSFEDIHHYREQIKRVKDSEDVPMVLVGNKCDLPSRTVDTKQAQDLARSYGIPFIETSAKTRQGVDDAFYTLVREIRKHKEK", "assay": "Covalent binding ability to KRAS G12C protein (LC-MS)", "conditions": "3 μM, 5 min", "experimental": "The following method was used to determine the covalent binding ability of the compounds of the present disclosure to recombinant human KRAS G12C protein under in vitro conditions.\nThe experimental procedure is briefly described as follows: The recombinant human KRAS G12C protein (aa1-169) was prepared with a reaction buffer (20 mM HEPES, 150 mM NaCl, 1 mM MgCl2, 1 mM DTT) at a concentration of 4 μM for later use. The test compound was prepared with DMSO into a 10 mM stock solution, which was then diluted with the reaction buffer for later use. First, 1.5 μL of the test compound diluted with the reaction buffer was added to each well (a final concentration of the reaction system was […]), then added with 23.5 μL of the reaction buffer, mixed well, then added with 25 μL of 4 μM recombinant human KRAS G12C protein for 5 min of incubation at room temperature, and added with 5 μL of acetic acid to stop the reaction. The samples were transferred to injection vials. The ratios of covalent binding between the test compounds and KRAS G12C protein were detected by Agilent 1290/6530 instrument, and the samples were analyzed in a liquid chromatography column (XBridge Protein BEH C4, 300 Å, 3.5 μm, 2.1 mm×50 mm). In the detection process, mobile phase A was 0.1% formic acid aqueous solution, mobile phase B was acetonitrile, the mobile phase elution program was as follows: mobile phase A was kept at 95% at 0-0.5 min, changed to 30% at 2.5 min for 0.5 min, and changed to 95% at 3.1 min for 1.9 min; and flow rate was 0.5 mL/min. Finally, the data was analyzed by MassHunter Workstation Software Bioconfirm Version B.08.00 to obtain the covalent binding rate between the test compound at a concentration of 3 μM and KRAS G12C protein under 5 min of incubation."}, "[2]": {"system": "p-ERK1/2 in NCI-H358 cells", "assay": "Inhibition of p-ERK1/2 in NCI-H358 cells (HTRF kit)", "assay_type": "cell-based", "conditions": "Homo sapiens, hEGF 5 nM stimulation, read-out: IC50 inhibiting p-ERK1/2 in NCI-H358 cells", "excerpt": "The following method was used to determine the inhibitory activity of the compounds of the present disclosure on p-ERK1/2 in NCI-H358 cells. In this method, Advanced phospho-ERK1/2 (Thr202/tyr204) kit (Cat. No. 64AERPEH) from Cisbio company was used, and the detailed experimental operation can be referred to the kit instruction. NCI-H358 cells (containing KRAS G12C mutation) were purchased from the Cell Resource Center, Shanghai Institutes for Biology Sciences, Chinese Academy of Sciences.\nThe experimental procedure is briefly described as follows: NCI-H358 cells were cultured in RPMIH 1640 complete medium containing 10% fetal bovine serum, 100 U penicillin, 100 μg/mL streptomycin and 1 mM sodium pyruvate. […] The 96-well plate was placed on ice for half an hour of lysis, and then the lysate was detected according to the instruction of the Advanced phospho-ERK1/2 (Thr202/tyr204) kit. Finally, the fluorescence intensity of each well at emission wavelengths of 620 nm and 665 nM was measured on a microplate reader in TF-FRET mode at an excitation wavelength of 304 nm, and the ratio of the fluorescence intensity of each well at 665/620 was calculated. The percentage of inhibition rate of the test compounds at each concentration was calculated by comparing with the fluorescence intensity of the control group (0.1% DMSO). […]"}, "[3]": {"assay": "ICR mouse pharmacokinetic research", "assay_type": "in vivo", "conditions": "plasma, po, ICR mice, intragastric administration 5 mg/kg", "experimental": "ICR mice were used as test animals. The drug concentrations in plasma at different time points of the compounds in Comparative Example 1 and Example 17 of the present disclosure intragastrically administered to the mice were determined by LC/MS/MS method, to study the pharmacokinetic characteristics of the compounds of the present disclosure in mice.\nPreparation for intragastric administration: An appropriate amount of the compound to be tested was weighed, added with an appropriate amount of DMSO: PEG 200=5%: 95% (v/v), shaken by vortex, and prepared into a solution with a final concentration of 0.5 mg/mL.\nIntragastric administration group: After fasting overnight, the mice were intragastrically administered at a dose of 5 mg/kg and a volume of 10 mL/kg, and fed 4 h after the administration.\nIntragastric administration group: About 100 μL of blood was collected through the orbital vein before administration and at 0.25 h, 0.5 h, 1 h, 2 h, 4 h, 8 h, 12 h and 24 h after administration.\nThe whole blood sample was put in an EDTA-K2 anticoagulant tube. The plasma was separated by centrifugation at 1500 g for 10 min. The collected upper layer plasma was stored at −40 to −20° C. before analysis.\nThe content of the compound to be tested in mouse plasma was determined by LC-MS/MS after the compound was intragastrically administered."}},
  "data": [
    {"smiles": "C=CC(=O)N1C[C@@H]2C(=O)N(C)c3c(c4cc(Cl)c(-c5c(O)cccc5F)nc4n(-c4c(SC)ccnc4C(C)C)c3=O)N2C[C@H]1C", "note": "(single isomer, unassigned) [Compound 17]", "values": [
      {"measurement": "Covalent binding rate (%)", "setting": "[1]", "value": 63.4, "unit": "%"},
      {"measurement": "IC50", "setting": "[2]", "value": 83.4, "unit": "nM"},
      {"measurement": "AUC(0-inf)", "setting": "[3]; read-out: Area under curve AUC0-∞", "value": 6380, "unit": "ng·h/mL"},
      {"measurement": "Cmax", "setting": "[3]; read-out: Blood concentration Cmax", "value": 1400, "unit": "ng/mL"},
      {"measurement": "half-life", "setting": "[3]; read-out: Half-life T½ (converted)", "value": 2.36, "unit": "h"}
    ]}
  ]
}
